Reference: patent publication US20250073238A1, “METHODS OF TREATING SYSTEMIC LUPUS ERYTHEMATOSUS USING BTK INHIBITORS” (BeiGene Switzerland GmbH, priority 2020, published 2025)

Experiments:
[1] = system: NZBWF1/J lupus mouse model; assay: Efficacy in NZBWF1/J lupus model; type: in vivo; conditions: for Blood urea nitrogen (BUN) level: day 96, serum
Method: […] NZBWF1 female mice at 26 weeks of age were randomized into 7 groups with 10 mice per group, based on proteinuria level, anti-dsDNA IgG level and body weight. […] Treatments were administered by oral gavage (p.o.) in a volume of 10 ml/kg body weight.
Mice were also being monitored daily for clinical signs of toxicity for the duration of the study. Body weight for each animal was recorded twice per week and proteinuria was measured weekly. Proteinuria was assessed using URIT 1 vp strips, and was scored on a 0-4 scale with scored as follows: 0=trace, 1≥30 mg/dL, 2≥100 mg/dL, 3≥300 mg/dL, and 4≥500 mg/dL.
On the day 96th of treatment, blood was collected quickly by the heart punctures under carbon dioxide euthanasia. The 300-500 μL blood was transferred to the coagulation tube, and the upper serum samples were separated by centrifuge at 2,000 g for 10 minutes, and then stored in the refrigerator at −80° C. for later use. 110 μL serum was used for the detection of blood urea nitrogen level, and 25 μL serum was used for measurement of TNFα and IL-10 levels by Luminex.
The kidney was removed and fixed with 10% neutral buffer formalin solution. The tissue was taken from the modified block, dehydrated with alcohol step by step, embedded in paraffin, sectioned by slide slicer (about 3 μm thick), stained with hematoxylin-cosin (HE), and examined by light microscopy for pathological changes of the kidney tissue. Sections were blindly scored as the sum of three systems, including inflammation (0-4), glomerular damage (0-4), and sclerosis (0-4).

SLE-cGVHD mouse model = assay: Efficacy in systemic lupus erythematosus like chronic graft-versus-host-disease (SLE-cGVHD) model; type: in vivo
Method: Splenocytes from DBA/2 mice were transplanted into 54 B6D2F1 mice intravenously at day −7 and day 0. 48 animals were randomly divided into 4 groups of 12 animals each group according to the inoculation order. Treatment was initiated the next day after randomization until the end of the 26th day. […] Treatments were administered by oral gavage (p.o.) in a volume of 10 ml/kg body weight.
Mice were monitored daily for clinical signs of toxicity for the duration of the study. Body weight for each animal was recorded twice per week. On day 15th of treatment, blood was collected from the orbital venous sinus under isoflurane/oxygen anesthesia and the serum samples were prepared. An anti-ds DNA IgG ELISA kit (Chondrex, Inc., Cat. 3031) was used to quantitate anti-ds DNA IgG levels in sera from individual mice.
On day 8th, b 15th and 22th of treatment, proteinuria was assessed by determination of urine albumin using URIT 1 vp strips (URIT, China), and was scored on a 0-4 scale with scored as follows: 0=trace, 1≥30 mg/dL, 2≥100 mg/dL, 3≥300 mg/dL, and 4≥500 mg/dL.
The difference between the mean values of proteinuria level, spleen-index and anti-ds DNA IgG level in treatment and vehicle group was analyzed for significance using One-way ANOVA (followed by Dunnett's test). P<0.05 was considered statistically significant.

[2] = Plasma drug exposure at steady state in SLE-cGVHD mice; type: in vivo, mouse; conditions: day 26, 10 and 20 mg/kg BID oral
Method: Plasma was collected by centrifugation at 5, 600 rpm for 7 minutes. Bioanalysis was conducted at 3D BioOptima Co., Ltd. (Suzhou, China).

[3] = system: MRL/MpJ-Fas^lpr/J (MRL/lpr) mouse model; assay: Efficacy in MRL/MpJ-Fas^lpr/J (MRL/lpr) lupus model; type: in vivo
Method: MRL/MpJ-Fas^lpr/J (MRL/lpr) mice purchased from Jackson laboratories were randomized into 6 groups with 11 mice per group, based on proteinuria level, anti-dsDNA IgG and body weight. […] Treatments were administered by oral gavage (p.o.) in a volume of 10 ml/kg body weight.
During the experimental period, the condition and mortality of the mice were recorded every day. Body weight for each animal was recorded twice per week.
Proteinuria was measured by determination of urine albumin weekly using URIT 1 vp strips (URIT, China), and was scored on a 0-4 scale with scored as follows: 0=trace, 1≥30 mg/dLl, 2≥100 mg/dL, 3≥300 mg/dLl, and 4≥500 mg/dL.
At the end of the study, blood was collected from the orbital venous sinus under isoflurane/oxygen anesthesia. The serum samples were prepared and analyzed for BUN level in serum. An anti-dsDNA IgG ELISA kit (Chondrex, Inc., Cat. 3031) was used to quantitate IgG level to anti-dsDNA IgG in sera from individual mice.
Mice were euthanized using carbon dioxide, spleen and body weight were measured at the end of the study. Spleen index (ratio of spleen weight to body weight) was calculated.
The kidneys were collected and preserved in 10% NBF, the tissues were trimmed, dehydrated, embedded in paraffin, sectioned (˜3 μm) and stained with HE. The histopathology exam was performed.
The difference between the mean values of proteinuria level, spleen-index, BUN level, kidney histopathology score and anti-dsDNA IgG level in treatment and vehicle group was analyzed for significance using One-way ANOVA (followed by Dunnett's test). P<0.05 was considered statistically significant.

[4] = Plasma drug exposure at steady state in MRL/lpr mice; type: in vivo, mouse; conditions: 1.5-50 mg/kg BID oral
Method: Plasma was collected by centrifugation at 5, 600 rpm for 7 minutes and was kept frozen at −80° C. until analysis. Bioanalysis was conducted at 3D BioOptima Co., Ltd. (Suzhou, China).

[5] = Compound 1 10 mg/kg BID p.o., day 96
[6] = Compound 1 3 and 10 mg/kg BID p.o.
[7] = 1.5, 5, 15 and 50 mg/kg BID oral, end of study
[8] = MMF 100 mg/kg QD p.o., compared with the control group

For `C=CC(=O)N1CCC([C@@H]2CCNc3c(C(N)=O)c(-c4ccc(Oc5ccccc5)cc4)nn32)CC1` [Compound 1, (S)-7-(1-acryloylpiperidin-4-yl)-2-(4-phenoxyphenyl)-4,5,6,7-tetra-hydropyrazolo[1,5-a]pyrimidine-3-carboxamide], the “Secretion of IL-10 (serum level)” value [1, 5] was “dramatically inhibited”, the “Secretion of TNFα (serum level)” value [1, 5] was “dramatically inhibited” and the Renal histopathology score ([1]; Compound 1 0.1-10 mg/kg BID p.o.) was “inhibited renal histopathology score in a dose-dependent manner”. For the same compound, the Proteinuria ([1]; Compound 1 0.1-10 mg/kg BID p.o., vs. vehicle) was “dose-dependently suppressed”, the Proteinuria ([1]; Compound 1 0.1 and 0.3 mg/kg BID p.o., compared with MMF 100 mg/kg QD) was “less effective than MMF” and the Proteinuria ([1]; Compound 1 1, 3 and 10 mg/kg BID p.o., compared with MMF 100 mg/kg QD) was “no significant difference when compared with MMF”. The Spleen weight [1, 6] was “dramatically inhibited”, the “Blood urea nitrogen (BUN) level” value [1, 6] was “remarkably inhibited” and the “Anti-lupus effect compared with MMF” value ([1]; Compound 1 orally 3 and 10 mg/kg BID) was “stronger anti-lupus effect”. The “Anti-lupus effect (overall)” value ([1]; NZBWF1/J lupus mouse model, all results) was “strong anti-lupus effect”, the “Level of anti-dsDNA IgG in serum” value (SLE-cGVHD mouse model; 10 and 20 mg/kg BID oral, day 15 of treatment, ELISA) was “inhibited” and the Proteinuria level (SLE-cGVHD mouse model; 10 and 20 mg/kg BID oral, day 22 of treatment) was “significantly reduced”. For the same compound, the “Disease (overall)” value (SLE-cGVHD mouse model; SLE-cGvHD mouse model, all results) was “ameliorated disease”, the “Drug exposure AUC0-8h” value [2] was “increased dose dependently” and the “Drug exposure Cmax” value [2] was “increased dose dependently”. The “Efficacy (dose dependence)” value ([3]; 1.5 mg/kg to 50 mg/kg twice a day) was “dose-dependent efficacy”, the “Protection from lupus nephritis” value ([3]; 1.5, 5, 15 and 50 mg/kg BID oral, 17 weeks) was “significantly protected” and the Proteinuria ([3]; 1.5, 5, 15 and 50 mg/kg BID oral, day 118) was “significantly decreased”. For the same compound, the Kidney histopathological score [3, 7] was “reduced”, the “Serum blood urea nitrogen (BUN) level” value [3, 7] was “significantly decreased” and the “Anti-dsDNA IgG level in serum” value ([3]; 1.5, 5, 15 and 50 mg/kg BID oral, end of study, compared with vehicle) was “inhibited”. For the same compound, the “Anti-lupus effect (overall)” value ([3]; MRL/lpr mouse model, all results) was “strong anti-lupus effect”, the “Drug exposure AUC0-8h” value [4] was “increased dose independently” and the “Drug exposure Cmax” value [4] was “increased dose independently”.
In the case of `COc1c(C)c2c(c(O)c1C/C=C(\C)CCC(=O)OCCN1CCOCC1)C(=O)OC2` [MMF, mycophenolate mofetil, reference compound], the Renal histopathology score ([1]; MMF 100 mg/kg QD p.o.) is reported as “not able to significantly inhibit”, the Spleen mass ([1]; MMF 100 mg/kg QD p.o.) is reported as “not able to significantly inhibit” and the “IL-10 level in serum” value [1, 8] is reported as “lower level of TNFα and IL-10 with no statistical significance”. For the same compound, the “TNFα level in serum” value [1, 8] was “lower level of TNFα and IL-10 with no statistical significance” and the “Blood urea nitrogen (BUN) level” value ([1]; MMF 100 mg/kg QD p.o.) was “remarkably inhibited”.
